Measurements: US12509474B2, “Inhibitors of complement factors and uses thereof” (Annexon, Inc., priority 2020, dated 2025)
Counter-ions that a name gives are not always drawn.

target: T1, human C1s protein (Homo sapiens, UniProt P09871); experiment: C1s enzymatic assay (hydrolysis of YLGR-Rh110-dPro); assay type: biochemical; details: substrate YLGR-Rh110-dPro 20 μM, 15 min pre-incubation, 60 min RT, fluorescence
T1 construct: A104
T1 sequence (P09871 16-688): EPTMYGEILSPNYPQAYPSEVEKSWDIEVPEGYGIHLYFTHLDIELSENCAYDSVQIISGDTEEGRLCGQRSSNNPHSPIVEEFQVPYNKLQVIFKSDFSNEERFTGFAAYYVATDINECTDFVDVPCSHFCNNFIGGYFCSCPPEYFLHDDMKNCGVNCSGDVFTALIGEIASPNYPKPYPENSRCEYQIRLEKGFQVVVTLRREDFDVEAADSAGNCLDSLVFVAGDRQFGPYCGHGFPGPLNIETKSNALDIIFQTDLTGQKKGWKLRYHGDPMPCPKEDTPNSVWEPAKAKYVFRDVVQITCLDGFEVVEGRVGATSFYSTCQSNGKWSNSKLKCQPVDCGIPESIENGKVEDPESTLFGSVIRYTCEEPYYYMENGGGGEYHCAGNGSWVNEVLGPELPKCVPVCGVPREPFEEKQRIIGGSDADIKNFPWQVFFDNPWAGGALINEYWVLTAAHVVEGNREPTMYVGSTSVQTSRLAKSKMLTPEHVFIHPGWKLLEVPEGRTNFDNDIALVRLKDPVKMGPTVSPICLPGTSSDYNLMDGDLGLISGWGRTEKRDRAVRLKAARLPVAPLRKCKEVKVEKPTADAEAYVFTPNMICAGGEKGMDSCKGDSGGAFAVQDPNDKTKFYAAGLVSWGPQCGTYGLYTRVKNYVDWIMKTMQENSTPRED
Summary of the method: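 Fluorogenic assay in which C1s cleaves YLGR-Rh110-dPro (20 μM final) to release fluorescent Rh110, in buffer with 0.1 mg/mL BSA. Enzyme was preincubated 15 min with compound before substrate was added. Compounds were run as 11-point curves, with DMSO as high control and Nafamostat as low control.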

With “7-(1-hydroxy-3-prop-2-enyl-3,4-dihydro-2,1-benzoxazonin-7-yl)cinnolin-4-amine [Example 148]” the “hC1s pIC50” value was 8.64.

same assay, conditions: substrate YLGR-Rh110-dPro 20 μM, 15 min pre-incubation, 60 min RT, fluorescence, read-out: hC1s pIC50 (converted)

Going from `COc1c(F)cc(B(O)O)cc1-c1ccc2c(N)nnc(C)c2c1` [Example 57, [3-(1-amino-4-methylphthalazin-6-yl)-5-fluoro-4-methoxyphenyl]boronic Acid Trifluoroacetic Acid Salt] to `COc1ccc(B(O)O)cc1-c1ccc2c(N)nnc(C)c2c1` [Example 7, [3-(1-amino-4-methylphthalazin-6-yl)-4-methoxyphenyl]boronic Acid Formic Acid Salt], the IC50 falls from 1.48 nM to 0.891 nM (1.7-fold).

`C[C@@H]1C[C@H](Oc2ccc(B(O)O)cc2-c2ccc3c(N)cnnc3c2)C[C@H](C)O1` [Example 123, [3-(4-aminocinnolin-7-yl)-4-{[(2R,4R,6S)-2,6-dimethyloxan-4-yl]oxy}phenyl]boronic Acid Formic Acid Salt] and `Nc1cnnc2cc(-c3cc(B(O)O)ccc3OC3CCC3)ccc12` [Example 117, [3-(4-aminocinnolin-7-yl)-4-cyclobutoxyphenyl]boronic Acid] are within 1.5-fold of each other in IC50: 0.851 nM for the first, 0.708 nM for the second.

Compared with `Cc1nnc(N)c2ccc(-c3cc(B(O)O)ccc3P(C)(C)=O)cc12` [Example 62, [3-(1-amino-4-methylphthalazin-6-yl)-4-dimethylphosphorylphenyl]boronic Acid Formic Acid Salt], `CCc1ccc(B(O)O)cc1-c1ccc2c(N)nnc(C)c2c1` [Example 12, [3-(1-amino-4-methylphthalazin-6-yl)-4-ethylphenyl]boronic Acid Formic Acid Salt] is 3.5-fold lower in IC50: 28.8 nM for the first, 8.13 nM for the second.

First: COc1ccc(B(O)O)cc1-c1ccc2ccnnc2c1 [Example 80, [3-(cinnolin-7-yl)-4-methoxyphenyl]boronic Acid]
Second: COc1ccc(B(O)O)cc1-c1ccc2ccncc2c1 [Example 161, [3-(isoquinolin-7-yl)-4-methoxyphenyl]boronic Acid]
The IC50 of the first is lower: 617 nM for the first, > 25100 nM for the second.

Compared with `COc1cc(C#N)c(B(O)O)cc1-c1ccc2c(N)nnc(C)c2c1` [Example 116, [5-(1-amino-4-methylphthalazin-6-yl)-2-cyano-4-methoxyphenyl]boronic Acid], `COc1cc2c(cc1-c1ccc3c(N)nnc(C)c3c1)B(O)OC2` [Example 20, 6-(1-hydroxy-5-methoxy-3H-2,1-benzoxaborol-6-yl)-4-methylphthalazin-1-amine] is 4.5-fold higher in IC50: 2.24 nM for the first, 10 nM for the second.

`Nc1cnnc2cc(-c3cc(B(O)O)ccc3OCC(F)(F)F)ccc12` [Example 118, [3-(4-aminocinnolin-7-yl)-4-(2,2,2-trifluoroethoxy)phenyl]boronic Acid Formic Acid Salt] and `Nc1cnnc2cc(-c3cc(B(O)O)ccc3OC3CC(F)(F)C3)ccc12` [Example 142, [3-(4-aminocinnolin-7-yl)-4-(3,3-difluorocyclobutoxy)phenyl]boronic Acid Formic Acid Salt] are within 1.5-fold of each other in IC50: 1.1 nM for the first, 1.17 nM for the second.

`CC(C)C1Cc2ccc(-c3ccc4c(N)cnnc4c3)cc2B(O)O1` (single isomer, unassigned) [Example 153] and `CC1Cc2ccc(-c3ccc4c(N)cnnc4c3)cc2B(O)O1` (single isomer, unassigned) [Example 94] are within 1.5-fold of each other in IC50: 1.66 nM for the first, 1.91 nM for the second.

Compared with `COc1cc2c(cc1-c1ccc3c(N)cnnc3c1)B(O)OCC2` [Example 46, 7-(1-hydroxy-6-methoxy-3,4-dihydro-2,1-benzoxazonin-7-yl)cinnolin-4-amine Trifluoroacetic Acid Salt], `Cc1nnc(N)c2ccc(-c3ccc4c(c3)B(O)OCC4)cc12` [Example 26, Formic Acid Salt] is 3.4-fold lower in IC50: 7.41 nM for the first, 2.19 nM for the second.

Going from `CC(C)CCC(=O)Nc1ccc(B(O)O)cc1-c1ccc2c(N)cnnc2c1` [Example 65, [3-(4-aminocinnolin-7-yl)-4-(4-methylpentanamido)phenyl]boronic Acid Formic Acid Salt] to `Nc1cnnc2cc(-c3cc(B(O)O)ccc3Oc3cncs3)ccc12` [Example 168, [3-(4-aminocinnolin-7-yl)-4-(1,3-thiazol-5-yloxy)phenyl]boronic Acid Formic Acid Salt], the IC50 falls from 57.5 nM to 1.32 nM (44-fold).

Compared with `COc1ccc(B(O)O)cc1-c1cc(F)c2c(N)nnc(C)c2c1` [Example 55], `Cc1nnc(N)c2ccc(-c3cc(B(O)O)ccc3OC(F)(F)F)cc12` [Example 15, [3-(1-amino-4-methylphthalazin-6-yl)-4-(trifluoromethoxy)phenyl]boronic Acid] is 3.9-fold lower in IC50: 6.61 nM for the first, 1.7 nM for the second.

Going from `Cc1nnc(N)c2ccc(-n3cc(B(O)O)cn3)cc12` [Example 23, [1-(1-amino-4-methylphthalazin-6-yl)pyrazol-4-yl]boronic Acid] to `Cc1nnc(N)c2ccc(-c3cncc(B(O)O)c3)cc12` [Example 17, [5-(1-amino-4-methylphthalazin-6-yl)pyridin-3-yl]boronic Acid], the IC50 falls from 363 nM to 1.74 nM (210-fold).

Going from `Cc1nnc(N)c2ccc(-c3cc(B(O)O)cc(C(F)(F)F)c3)cc12` [Example 38] to `Cc1nnc(N)c2ccc(-c3ccc(C(F)(F)F)c(B(O)O)c3)cc12` [Example 74, [5-(1-amino-4-methylphthalazin-6-yl)-2-(trifluoromethyl)phenyl]boronic Acid], the IC50 rises from 1.05 nM to 1.95 nM (1.9-fold).

Going from `Nc1cnnc2cc(-c3cc(B(O)O)ccc3N3CCOCC3)ccc12` [Example 143, [3-(4-aminocinnolin-7-yl)-4-(morpholin-4-yl)phenyl]boronic Acid Formic Acid Salt] to `Nc1cnnc2cc(-c3cc(B(O)O)ccc3OC3CCOCC3)ccc12` [Example 51, [3-(4-aminocinnolin-7-yl)-4-(oxan-4-yloxy)phenyl]boronic Acid Formic Acid Salt], the IC50 falls from 57.5 nM to 0.724 nM (79-fold).

Going from `COc1ccc(B(O)O)cc1-c1ccc2c(N)nc(C)cc2c1` [Example 22, [3-(1-amino-3-methylisoquinolin-6-yl)-4-methoxyphenyl]boronic Acid] to `Cc1cc2cc(-c3cccc(B(O)O)c3)ccc2c(N)n1` [Example 13, [3-(1-amino-3-methylisoquinolin-6-yl)phenyl]boronic Acid; Trifluoroacetic Acid Salt], the IC50 falls from 269 nM to 37.2 nM (7.2-fold).

Going from `Nc1cnnc2cc(-c3c(OC(F)F)ccc(B(O)O)c3F)ccc12` [Example 97, [3-(4-aminocinnolin-7-yl)-4-(difluoromethoxy)-2-fluorophenyl]boronic Acid] to `CC1(C)Cc2cc(B(O)O)cc(-c3ccc4c(N)cnnc4c3)c2O1` [Example 170, [7-(4-aminocinnolin-7-yl)-2,2-dimethyl-2,3-dihydro-1-benzofuran-5-yl]boronic Acid Formic Acid Salt], the IC50 falls from 11.7 nM to 1.07 nM (11-fold).

First: Cc1nnc(N)c2ccc(-c3ccc4c(c3)B(O)OC4)cc12 [Example 14, 6-(1-hydroxy-3H-2,1-benzoxaborol-6-yl)-4-methylphthalazin-1-amine Formic Acid Salt]
Second: Cc1nnc(N)c2ccc(-c3ccc4c(c3)B(O)OC(=O)C4)cc12 [Example 56, Trifluoroacetic Acid Salt]
The IC50 of the first is 2.4-fold higher: 14.1 nM for the first, 5.89 nM for the second.

Going from `Cc1nnc(N)c2ccc(-c3cc(B(O)O)ccc3C(F)(F)F)cc12` [Example 39, [3-(1-amino-4-methylphthalazin-6-yl)-4-(trifluoromethyl)phenyl]boronic Acid Formic Acid Salt] to `COCCOCCOCCOCCOCCOCCOc1ccc(B(O)O)cc1-c1ccc2c(N)nnc(C)c2c1` [Example 16, [3-(1-amino-4-methylphthalazin-6-yl)-4-[2-[2-[2-[2-[2-(2-methoxyethoxy)ethoxy]ethoxy]ethoxy]ethoxy]ethoxy]phenyl]boronic Acid], the IC50 rises from 1.32 nM to 4.79 nM (3.6-fold).
